Measurements reported in patent US6521456B1, “Cellular transport system for the transfer of a nucleic acid through the nuclear envelope and methods thereof” (priority 1999, dated 2003).

Tested on: promoter of the ampicillin resistance gene (expression vector DNA)
Test: Binding of PNA-peptide-hybrids to double stranded vector DNA (inhibition of Earl cleavage at the PNA binding site)
Conditions: 25 μM PNA-peptide-hybrid, 100 ng vector
Description: 100 ng expression vector were incubated in TE (pH 7,8) with 25 μM of different PNA-peptide-hybrids at either 65° C. or 37° C. for five minutes to three hours. The PNA-sequence NH2-CTCTTCCTTTTTC-COOH (SEQ ID NO: 6) used here, binds to the promoter of the ampicillin resistance gene.
At the C-terminus either a peptide of 21 amino acids (Peptide 1) or 27 amino acids (Peptide 2) or a spacer of 10 AEEA-units (Fmoc-AEEA-OH Spacer, PerSeptive Biosystems Inc., Framingham, USA) followed by 27 amino acids (Peptide 3) is located. The binding assays were subsequently incubated with restriction endonuclease Earl. Restricted DNA was stained with YOYO (Molecular Probes, Inc., Eugene, Oreg., USA) separated on an agarose gel and quantified with a fluorescence scanner (Image Plate Reader FLA 2000, analysis software L-Process, version 1.6, Fuji Photo Film Co., Ltd., Tokio). Cleavage of DNA by restriction endonuclease Earl is inhibited at the PNA binding site. Additional Earl restriction sites serve as internal control of the reaction.

Substance	Portion of peptide-labelled DNA shown as percentage of input DNA (37 °C, 60 min)	Portion of peptide-labelled DNA shown as percentage of input DNA (37 °C, 120 min)	Portion of peptide-labelled DNA shown as percentage of input DNA (37 °C, 180 min)	Portion of peptide-labelled DNA shown as percentage of input DNA (65 °C, 5 min)	Portion of peptide-labelled DNA shown as percentage of input DNA (65 °C, 10 min)	Portion of peptide-labelled DNA shown as percentage of input DNA (65 °C, 15 min)
H-GKPSSDDEATADSQHSTPPKKKRKVED-OH [Peptide 2]	90%	91%	94%	96%	97%	97%
H-GKPTADDQHSTPPKKKRKVED-OH [Peptide 1]	85%	91%	94%	94%	96%	96%
NH2-(AEEA)10-GKPSSDDEATADSQHSTPPKKKRKVED-COOH [Peptide 3]	74%	76%	90%	91%	95%	95%
